Like-named read-outs stand apart in the source and are kept apart here.
What was measured:
[1] = test system: Key Broadleaf Weed and Crop Species; experiment: Post-emergent Test II herbicidal activity (Table 15); type: in vivo; settings: post-emergence, 336 h, 14 d; for pest or weed control at 35 g/ha: 35 g ai/ha; for pest or weed control at 70 g/ha: 70 g ai/ha; for pest or weed control at 140 g/ha: 140 g ai/ha
Outline: (§1)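 Plants grown in greenhouse (~15 h photoperiod, 23-29 °C day, 22-28 °C night) to first or second true leaf stage, then sprayed post-emergence at 187 L/ha with a high rate and 1/2×, 1/4×, 1/8× and 1/16× dilutions. Injury scored visually after 14 d, 0-100% versus untreated plants.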

[2] = test system: Key Grass and Sedge Weeds as well as Grass Crops; experiment: Post-emergent Test II herbicidal activity (Table 16); type: in vivo; settings: post-emergence, 336 h, 14 d; for pest or weed control at 35 g/ha: 35 g ai/ha; for pest or weed control at 70 g/ha: 70 g ai/ha; for pest or weed control at 140 g/ha: 140 g ai/ha
Outline: as §1

[3] = Abutilon theophrasti, velvetleaf (Abutilon theophrasti), read-out: Visual Growth Reduction (%) 14 Days After Application, ABUTH
[4] = Amaranthus retroflexus, redroot pigweed (Amaranthus retroflexus), read-out: Visual Growth Reduction (%) 14 Days After Application, AMARE
[5] = Brassica napus, oilseed rape, canola (Brassica napus), read-out: Visual Growth Reduction (%) 14 Days After Application, BRSNN
[6] = Chenopodium album, lambsquarters (Chenopodium album), read-out: Visual Growth Reduction (%) 14 Days After Application, CHEAL
[7] = Euphorbia heterophylla, wild poinsettia (Euphorbia heterophylla), read-out: Visual Growth Reduction (%) 14 Days After Application, EPHHL
[8] = Helianthus annuus, sunflower (Helianthus annuus), read-out: Visual Growth Reduction (%) 14 Days After Application, HELAN
[9] = Cyperus esculentus, yellow nutsedge (Cyperus esculentus), read-out: Visual Growth Reduction (%) 14 Days After Application, CYPES
[10] = Echinochloa crus-galli, barnyardgrass (Echinochloa crus-galli), read-out: Visual Growth Reduction (%) 14 Days After Application, ECHCG
[11] = Oryza sativa, rice (Oryza sativa), read-out: Visual Growth Reduction (%) 14 Days After Application, ORYSA
[12] = Setaria faberi, giant foxtail (Setaria faberi), read-out: Visual Growth Reduction (%) 14 Days After Application, SETFA
[13] = Triticum aestivum, wheat, spring (Triticum aestivum), read-out: Visual Growth Reduction (%) 14 Days After Application, TRZAS
[14] = Zea mays, maize, corn (Zea mays), read-out: Visual Growth Reduction (%) 14 Days After Application, ZEAMX

| melting point [°C] | Compound | pest or weed control at 35 g/ha [1, 3] [%] | pest or weed control at 70 g/ha [1, 3] [%] | pest or weed control at 140 g/ha [1, 3] [%] | pest or weed control at 35 g/ha [1, 4] [%] | pest or weed control at 70 g/ha [1, 4] [%] | pest or weed control at 140 g/ha [1, 4] [%] | pest or weed control at 35 g/ha [1, 5] [%] | pest or weed control at 70 g/ha [1, 5] [%] | pest or weed control at 140 g/ha [1, 5] [%] | pest or weed control at 35 g/ha [1, 6] [%] | pest or weed control at 70 g/ha [1, 6] [%] | pest or weed control at 140 g/ha [1, 6] [%] | pest or weed control at 35 g/ha [1, 7] [%] | pest or weed control at 70 g/ha [1, 7] [%] | pest or weed control at 140 g/ha [1, 7] [%] | pest or weed control at 35 g/ha [1, 8] [%] | pest or weed control at 70 g/ha [1, 8] [%] | pest or weed control at 140 g/ha [1, 8] [%] | pest or weed control at 35 g/ha [2, 9] [%] | also measured |
| --- | --- | --- | --- | --- | --- | --- | --- | --- | --- | --- | --- | --- | --- | --- | --- | --- | --- | --- | --- | --- | --- |
| 185 to 190 | COC(=O)c1nc(-c2ccc3cc[nH]c3c2F)nc(N)c1Cl [Compound 1.31] | 45 to 59 | 60 to 74 | 60 to 74 | 60 to 74 | 95 to 100 | 95 to 100 | 85 to 94 | 95 to 100 | 95 to 100 | 95 to 100 | 95 to 100 | 95 to 100 | 95 to 100 | 95 to 100 | 95 to 100 | 30 to 44 | 45 to 59 | 60 to 74 | 0 to 29 | pest or weed control at 70 g/ha [2, 9]: 0 to 29%; pest or weed control at 140 g/ha [2, 9]: 0 to 29%; pest or weed control at 35 g/ha [2, 10]: 75 to 84%; pest or weed control at 70 g/ha [2, 10]: 75 to 84%; pest or weed control at 140 g/ha [2, 10]: 85 to 94%; pest or weed control at 35 g/ha [2, 11]: 0 to 29%; pest or weed control at 70 g/ha [2, 11]: 0 to 29%; pest or weed control at 140 g/ha [2, 11]: 0 to 29%; pest or weed control at 35 g/ha [2, 12]: 60 to 74%; pest or weed control at 70 g/ha [2, 12]: 75 to 84%; pest or weed control at 140 g/ha [2, 12]: 85 to 94%; pest or weed control at 35 g/ha [2, 13]: 75 to 84%; pest or weed control at 70 g/ha [2, 13]: 0 to 29%; pest or weed control at 140 g/ha [2, 13]: 30 to 44%; pest or weed control at 35 g/ha [2, 14]: 0 to 29%; pest or weed control at 70 g/ha [2, 14]: 0 to 29%; pest or weed control at 140 g/ha [2, 14]: 0 to 29% |
| 154 to 157 | COc1c(N)nc(-c2ccc3cc[nH]c3c2)nc1C(=O)O [Compound 1.33] | 0 to 29 | 0 to 29 | 0 to 29 | 60 to 74 | 60 to 74 | 75 to 84 | 95 to 100 | 95 to 100 | 95 to 100 | 0 to 29 | 45 to 59 | 60 to 74 | 45 to 59 | 60 to 74 | 75 to 84 | 60 to 74 | 60 to 74 | 75 to 84 | 0 to 29 | pest or weed control at 70 g/ha [2, 9]: 0 to 29%; pest or weed control at 140 g/ha [2, 9]: 0 to 29%; pest or weed control at 35 g/ha [2, 10]: 0 to 29%; pest or weed control at 70 g/ha [2, 10]: 0 to 29%; pest or weed control at 140 g/ha [2, 10]: 0 to 29%; pest or weed control at 35 g/ha [2, 11]: 0 to 29%; pest or weed control at 70 g/ha [2, 11]: 0 to 29%; pest or weed control at 140 g/ha [2, 11]: 0 to 29%; pest or weed control at 35 g/ha [2, 12]: 0 to 29%; pest or weed control at 70 g/ha [2, 12]: 0 to 29%; pest or weed control at 140 g/ha [2, 12]: 0 to 29%; pest or weed control at 35 g/ha [2, 13]: 0 to 29%; pest or weed control at 70 g/ha [2, 13]: 0 to 29%; pest or weed control at 140 g/ha [2, 13]: 30 to 44% |
| 190 to 191 | COC(=O)c1nc(-c2ccc3cc[nH]c3c2)nc(N)c1OC [Compound 1.32] | 0 to 29 | 0 to 29 | 0 to 29 | 0 to 29 | 30 to 44 | 60 to 74 | 30 to 44 | 45 to 59 | 60 to 74 | 0 to 29 | 0 to 29 | 75 to 84 | 0 to 29 | 60 to 74 | 85 to 94 | 45 to 59 | 60 to 74 | 75 to 84 | 0 to 29 | pest or weed control at 70 g/ha [2, 9]: 0 to 29%; pest or weed control at 140 g/ha [2, 9]: 0 to 29%; pest or weed control at 35 g/ha [2, 10]: 0 to 29%; pest or weed control at 70 g/ha [2, 10]: 0 to 29%; pest or weed control at 140 g/ha [2, 10]: 0 to 29%; pest or weed control at 35 g/ha [2, 11]: 0 to 29%; pest or weed control at 70 g/ha [2, 11]: 0 to 29%; pest or weed control at 140 g/ha [2, 11]: 0 to 29%; pest or weed control at 35 g/ha [2, 12]: 0 to 29%; pest or weed control at 70 g/ha [2, 12]: 0 to 29%; pest or weed control at 140 g/ha [2, 12]: 0 to 29%; pest or weed control at 35 g/ha [2, 13]: 0 to 29%; pest or weed control at 70 g/ha [2, 13]: 0 to 29%; pest or weed control at 140 g/ha [2, 13]: 0 to 29%; pest or weed control at 35 g/ha [2, 14]: 0 to 29%; pest or weed control at 70 g/ha [2, 14]: 0 to 29%; pest or weed control at 140 g/ha [2, 14]: 0 to 29% |

— US20170050957A1, “4-AMINO-6-(HETEROCYCLIC)PICOLINATES AND 6-AMINO-2-(HETEROCYCLIC)PYRIMIDINE-4-CARBOXYLATES AND THEIR USE AS HERBICIDES” (Dow AgroSciences LLC, priority 2013, published 2017)
